{
  "source": "patent US20230075368A1",
  "about": "“IDENTIFICATION OF AN EGFR-BIN3 PATHWAY THAT ACTIVELY SUPPRESSES INVASION AND REDUCES TUMOR SIZE IN GLIOBLASTOMA” (The United States Govemment as represented by the …, priority 2020, published 2023)",
  "key": {"GBM12 and GBM22 cells": {"test_system": "GBM12 and GBM22 cells", "assay": "Single cell migration assay on nanoplates", "type": "cell-based, human", "text": "For time-lapse analysis of individual cell movement, nano-ridge constructed of transparent poly(urethane acrylate) (PUA), and fabricated using UV-assisted capillary lithography as described by Kim et al. were used (Kim, D et al. (2009) Mechanosensitivity of fibroblast cell shape and movement to anisotropic substratum topography gradients, Biomaterials 30: 5433-5444; Kim, et al. (2009) Guided Cell Migration on Microtextured Substrates with Variable Local Density and Anisotropy, Adv Funct Mater 19: 1579-1586; Garzon-Muvdi, et al. (2012) Regulation of brain tumor dispersal by NKCC1 through a novel role in focal adhesion regulation, PLoS Biol 10: e1001320). The 24 well NanoSurface plate was purchased from Curi Bio (Seattle, Wash.). Prior to cell seeding, nanoridges surfaces were coated with laminin (3 μg/cm^2, Sigma-Aldrich). Cells were plated at low density (1×10^4 cells/ml) and incubated at 37° C. overnight. The following day, cells were washed with PBS and cultured in DMEM supplemented with 1% FBS and were ready for time-lapse imaging. To measure cell proliferation, 6 hours after plating Histone2B-GFP (C10594, ThermoFisher) was added for nuclear staining overnight. The next day cells were incubated with a mixture of BioTracker® NTP-Transporter Molecule (SCT064, Sigma Aldrich) and Cy3-dUTP (50-190-5459, ThermoFisher) for 10 minutes and then replaced with 1% FBS media containing HB2B2-GFP. For time-lapse imaging, the plate was mounted onto the stage of Andor spinning disk confocal microscope equipped with temperature and CO2 controlling environmental chamber. […] Both fluorescent and bright-field images were taken every 30 minutes for 24 hours using a 10× objective. ImageJ manual track Plugin was used to track the movement of cells frame by frame.\nAnalysis of individual cellular movement was performed as described elsewhere herein. EGF (50 ng/ml) or vehicle was added 6 hours after the start of time-lapse imaging (n=63 cells). Vehicle was used as a negative control (n=67 cells). Single cell migration speed was calculated using Manual tracking Plugin in ImageJ. […] Cell migration velocity was calculated over a period of 6 hours. […] Analysis of individual cell proliferation was performed as described elsewhere herein. EGF (50 ng/ml) was added 6 hours after the start of time-lapse imaging (n=56). Vehicle was used as a negative control (n=64). Representative static time-lapse Cy3 and H2B-GFP staining images of the same cell before and after addition of EGF are shown in FIG. 25E. […] Each point represents the percentage of Ki positive cells in total 100 cells. […] Cell migration velocity was calculated over a period of 6 hours (n=81). Vehicle was used as a negative control (n=89). […] Scale bar=[…]. Data are represented as media ±5-95% interquartile range (FIG. 25B and FIG. 25K) or mean±SEM (FIG. 25D and FIG. 25M). ***P<0.001, […], n.s. not significant, Mann-Whitney test was used for pair comparison. Two-way ANOVA test was used to analyze Cy3 intensity data in FIG. 25D and FIG. 25M. The results are representative of two independently repeated experiments.\nSingle-cell migration analysis was performed as described for FIG. 25A above (Vehicle group, n=57, EGF group, n=74). […] Cell migration velocity was calculated over a period of 6 hours. Vehicle was used as a negative control (n=57). […] Analysis of individual cell proliferation was performed as described elsewhere herein. […] Cell migration velocity was calculated over a period of 6 hours. […]"}, "DOCK7 and BIN3": {"test_system": "DOCK7 and BIN3", "assay": "Co-immunoprecipitation of BIN3 and DOCK7", "type": "cell-based, human", "details": "24 hours", "description": "Cells were treated with 50 ng/ml EGF for 24 hours, BIN3 (sc-514396AC, Santa Cruz Biotechnology) or mouse IgG antibodies were incubated with whole cell lysates overnight at 4° C., and the mixtures were then incubated with 40 μl protein A/G slurry beads (Sigma) for 2 hours at 4° C. Beads were washed three times with lysis buffer, and immunoprecipitates were boiled in loading buffer for 5 min, subjected to SDS-PAGE followed by Coomassie stain. Bands were cut from the gel and submitted for Mass Spectrometry Facility, UTSW, Dallas. To identify BIN3 and DOCK7 complexes in PDXs upon EGF treatment, cell lysates were immunoprecipitated with DOCK7 antibody or BIN3 antibody, and analyzed by Western blot using BIN3 antibody.\nReferring to FIG. 9A-S, BIN3 reduces invasion by interacting with DOCK7. Heat map of spectral counts of the top BIN3 interacting proteins identified by mass spectrometry in GBM12 treated with EGF (50 ng/ml) is shown in FIG. 9A. Western blot analysis of immunoprecipitated extracts from EGF-treated GBM12, GBM6, and GBM26 is illustrated in FIG. 9B. Cell lysates from cells treated with EGF (50 ng/ml) or control vehicle for 24 hours were immunoprecipitated by DOCK7 antibody, followed by Western blot for BIN3. Western blot analysis of BIN3 antibody immunoprecipitated extracts from GBM12, GBM6, and GBM26 24 hours after EGF or vehicle treatment is illustrated in FIG. 9C. […]"}},
  "data": [
    {"compound": "C[C@@H]1CCN(C(=O)CC#N)C[C@@H]1N(C)c1ncnc2[nH]ccc12", "note": "[tofacitinib]", "values": [
      {"measurement": "single cell migration", "setting": "GBM12 and GBM22 cells; tofacitinib 1 μM, GBM12", "value": "decreased invasion"},
      {"measurement": "single cell proliferation (Cy3)", "setting": "GBM12 and GBM22 cells; tofacitinib 1 μM, GBM12", "value": "increased proliferation"},
      {"measurement": "single cell migration and proliferation", "setting": "GBM12 and GBM22 cells; tofacitinib 1 μM, second PDX line (GBM22)", "value": "confirmed"}
    ]},
    {"compound": "EGF: Recombinant human EGF (AF-100) from Peprotech; EGFR ligand", "values": [
      {"measurement": "physical association between DOCK7 and BIN3", "setting": "DOCK7 and BIN3; EGF 50 ng/ml, GBM12, GBM6, GBM26", "value": "significantly induced a physical association"},
      {"measurement": "single cell migration", "setting": "GBM12 and GBM22 cells; EGF 50 ng/ml, GBM12", "value": "significant slowing of migration"},
      {"measurement": "single cell proliferation (Cy3 linked marker, Ki-67)", "setting": "GBM12 and GBM22 cells; EGF 50 ng/ml, GBM12", "value": "induces proliferation"}
    ]},
    {"compound": "HGF: the ligand for Met", "values": [
      {"measurement": "association between BIN3 and DOCK7", "setting": "DOCK7 and BIN3; HGF 20 ng/ml, GBM12 and GBM6", "value": "not detected"}
    ]}
  ]
}
